{"source": "patent US20230012368A1", "about": "(Hoffmann-La Roche Inc., priority 2018, published 2023)", "note": "Structures can show the parent of a compound that is named as a salt.", "data": [{"system": "Acinetobacter baumannii ATCC 17978", "test": "Antimicrobial susceptibility testing: 90% growth inhibitory concentration (IC90) determination", "type": "cell-based", "details": "90% growth inhibitory concentration; Acinetobacter baumannii ATCC17978; Iso-Sensitest broth, OD 600 nm over 16h; read-out: ATCC17978 IC90", "in_short": "(§1)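 Growth of the Acinetobacter baumannii strain was followed by optical density at 600 nm every 20 minutes for 16h at 35±2° C. Inoculum was ~5×10^(5) CFU/ml in Iso-Sensitest medium, with twofold compound dilutions (e.g. 50 to 0.097 μM final). The 90% inhibitory concentration was derived in log-phase growth.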", "units": {"IC90": "nM"}, "values": [{"smiles": "CCc1cc(Nc2nccn3c(-c4ccc(Oc5ncccn5)c(F)c4F)cnc23)ccc1C(=O)NCCNC(=O)[C@H](N)CCCNC(=N)N", "note": "[Example 437, N-[2-[[(2R)-2-amino-5-guanidino-pentanoyl]amino]ethyl]-4-[[3-(2,3-difluoro-4-pyrimidin-2-yloxy-phenyl)imidazo[1,2-a]pyrazin-8-yl]amino]-2-ethyl-benzamide; formic acid]", "IC90": 410}, {"smiles": "Cc1cc(Nc2nccn3c(-c4ccc(OC(F)F)cc4)cnc23)ccc1C(=O)N(C)CCC1CCNCC1", "note": "[Example 81, 4-((3-(4-(difluoromethoxy)phenyl)imidazo[1,2-a]pyrazin-8-yl)amino)-N,2-dimethyl-N-(2-(piperidin-4-yl)ethyl)benzamide]", "IC90": 200}]}, {"system": "Acinetobacter baumannii ATCC 17978", "test": "Antimicrobial susceptibility testing: 90% growth inhibitory concentration (IC90) determination", "type": "cell-based", "details": "Acinetobacter baumannii, ATCC17978, 16 h, 90% growth inhibitory concentration; Acinetobacter baumannii ATCC17978; Iso-Sensitest broth, OD 600 nm over 16h; read-out: ATCC17978 IC90", "in_short": "as §1", "units": {"IC90": "nM"}, "values": [{"smiles": "CCc1cc(Nc2nccn3c(-c4ccc(OC)c(F)c4F)cnc23)ccc1C(=O)NC[C@@H](C)NC(=O)[C@@H](N)CCCNC(=N)N", "note": "[Example 122, N-[(2R)-2-[[(2S)-2-amino-5-guanidino-pentanoyl]amino]propyl]-4-[[3-(2,3-difluoro-4-methoxy-phenyl)imidazo[1,2-a]pyrazin-8-yl]amino]-2-ethyl-benzamide formate]", "IC90": 310}, {"smiles": "CCc1cc(Nc2nccn3c(-c4ccc(OC)c(F)c4F)cnc23)ccc1C(=O)NCC(C)(C)CN", "note": "[Example 98, N-(3-amino-2,2-dimethylpropyl)-4-((3-(2,3-difluoro-4-methoxyphenyl)imidazo [1,2-a]pyrazin-8-yl)amino)-2-ethylbenzamide hydrochloride]", "IC90": 780}, {"smiles": "CN(C)C(=O)c1ccc(Nc2nccn3c(-c4ccc(OC(F)F)cc4)cnc23)cc1CO", "note": "[Example 259, 4-[[3-[4-(difluoromethoxy)phenyl]im-idazo[1,2-a]pyrazin-8-yl]amino]-2-(hydroxymethyl)-N,N-dimethylbenzamide]", "IC90": 4100}, {"smiles": "COc1ccc(-c2cnc3c(Nc4ccc(C(=O)NCCCN)c(C)c4)nccn23)cc1", "note": "[Example 51, N-(3-aminopropyl)-4-((3-(4-methoxyphenyl)imidazo [1,2-a]pyrazin-8-yl)amino)-2-methylbenzamide hydrochloride]", "IC90": 960}, {"smiles": "CCc1cc(Nc2nccn3c(-c4ccc(Cl)c(F)c4F)cnc23)ccc1C(=O)NCCCN", "note": "[Example 229, N-(3-aminopropyl)-4-[[3-(4-chloro-2,3-difluorophenyl)imidazo[1,2-a]pyrazin-8-yl]amino]-2-ethylbenzamide;hydrochloride]", "IC90": 1200}, {"smiles": "COc1ccc(-c2cnc3c(Nc4ccc(C(=O)N(C)CCCC(=O)N5CCNCC5)c(C)c4)nccn23)cc1F", "note": "[Example 207, 4-[[3-(3-fluoro-4-methoxyphenyl)imidazo[1,2-a]pyrazin-8-yl]amino]-N,2-dimethyl-N-(4-oxo-4-piperazin-1-ylbutyl)benzamide;hydrochlo-ride]", "IC90": 560}, {"smiles": "CNC(=O)c1ccc(Nc2nccn3c(-c4ccc(OC(F)F)cc4)cnc23)cc1Br", "note": "[Example 93, 2-bromo-4-((3-(4-(difluoromethoxy)phenyl)imidazo[1,2-a]pyrazin-8-yl)amino)-N-methylbenzamide]", "IC90": 200}, {"smiles": "CCc1cc(Nc2nccn3c(-c4ccc(OC)c(F)c4F)cnc23)ccc1C(=O)NCCNC(=O)[C@@H](N)CCNC(=N)N", "note": "[Example 131, N-[2-[[(2S)-2-amino-4-guanidino-butanoyl]amino]ethyl]-4-[[3-(2,3-difluoro-4-methoxy-phenyl)imidazo[1,2-a]pyrazin-8-yl]amino]-2-ethyl-benzamide formate]", "IC90": 90}, {"smiles": "COc1ccc(-c2cnc3c(Nc4ccc(C(=O)NCCCS(=O)(=O)N5CCNCC5)c(C)c4)nccn23)c(F)c1F", "note": "[Example 68, 4-((3-(2,3-difluoro-4-methoxyphenyl)imidazo [1,2-a]pyrazin-8-yl)amino)-2-methyl-N-(3-(piperazin-1-ylsulfonyl)propyl) benzamide]", "IC90": 170}, {"smiles": "COc1ccc(-c2cnc3c(Nc4ccc(C(=O)NCC5OCC(N)CO5)c(C)c4)nccn23)cc1", "note": "(stereo not drawn) [Example 206, N-[(5-amino-1,3-dioxan-2-yl)methyl]-4-[[3-(4-methoxyphenyl)imidazo[1,2-a]pyrazin-8-yl]amino]-2-methylbenzamide]", "IC90": 540}, {"smiles": "COc1ccc(-c2cnc3c(Nc4ccc(C(=O)N(C)Cc5cccnc5)c(C)c4)nccn23)cc1F", "note": "[Example 38, 4-[[3-(3-fiuoro-4-methoxy-phenyl)imidazo[1,2-a]pyrazin-8-yl]amino]-N,2-dimethyl-N-(3-pyridylmethyl) benzamide]", "IC90": 190}, {"smiles": "CCc1cc(Nc2nccn3c(-c4ccc(Oc5ccncn5)c(F)c4F)cnc23)ccc1C(=O)NCCNC(=O)[C@H](N)CCCNC(=N)N", "note": "[Example 433, N-[2-[[(2R)-2-amino-5-guanidino-pentanoyl]amino]ethyl]-4-[[3-(2,3-difluoro-4-pyrimidin-4-yloxy-phenyl)imidazo[1,2-a]pyrazin-8-yl]amino]-2-ethyl-benzamide; formic acid]", "IC90": 460}, {"smiles": "CCc1cc(Nc2nccn3c(-c4ccc(Cl)c(F)c4F)cnc23)ccc1C(=O)NCCNC(=O)[C@H](N)CCCNC(=N)N", "note": "[Example 130, N-[2-[[(2R)-2-amino-5-guanidino-pentanoyl]amino]ethyl]-4-[[3-(4-chloro-2,3-difluoro-phenyl)imidazo[1,2-a]pyrazin-8-yl]amino]-2-ethyl-benzamide formate]", "IC90": 640}, {"smiles": "Cc1cc(Nc2nccn3c(-c4ccc(OC(F)F)cc4)cnc23)ccc1C(=O)N(C)CCN1CCNCC1", "note": "[Example 45, 4-[[3-[4-(difluoromethoxy)phenyl]imidazo[1,2-a]pyrazin-8-yl]amino]-N,2-dimethyl-N-(2-piperazin-1-ylethyl)benzamide]", "IC90": 350}, {"smiles": "Cn1ccc(CNC(=O)c2ccc(Nc3nccn4c(-c5ccc(OCC#N)c(F)c5F)cnc34)cc2Cl)cc1=O", "note": "[Example 86, 2-chloro-4-[[3-[4-(cyanomethoxy)-2,3-difluoro-phenyl]imidazo[1,2-a]pyrazin-8-yl]amino]-N-[(1-methyl-2-oxo-4-pyridyl)methyl] benzamide]", "IC90": 140}, {"smiles": "N#CCOc1ccc(-c2cnc3c(Nc4ccc(C(=O)NCCCc5ccncc5)c(Cl)c4)nccn23)c(F)c1F", "note": "[Example 76, 2-chloro-4-[[3-[4-(cyanomethoxy)-2,3-difluoro-phenyl]imidazo[l,2-a]pyrazin-8-yl]amino]-N-[3-(4-pyridyl)propyl] benzamide; 2,2,2-trifluoroacetic acid]", "IC90": 170}, {"smiles": "Cc1cc(Nc2nccn3c(-c4ccc(OC(F)F)cc4)cnc23)ccc1C(=O)NCCN1CCOCC1=O", "note": "[Example 247, 4-[[3-[4-(difluoromethoxy)phenyl]im-dazo[1,2-a]pyrazin-8-yl]amino]-2-methyl-N-[2-(3-oxomorpholin-4-yl)ethyl]benzamide]", "IC90": 2400}, {"smiles": "CCc1cc(Nc2nccn3c(-c4ccc(OC)c(F)c4F)cnc23)ccc1C(=O)NC[C@@H]1CNC[C@@H]1O", "note": "[Example 531, 4-((3-(2,3-difluoro-4-methoxyphenyl)imidazo[1,2-a]pyrazin-8-yl)amino)-2-ethyl-N-(((3S,4R)-4-hydroxypyrrolidin-3-yl)methyl)benzamide hydrochloride]", "IC90": 150}, {"smiles": "CCN(C(=O)NCCCN(C)C)C(=O)c1ccc(Nc2nccn3c(-c4ccc(OCC#N)c(F)c4F)cnc23)cc1Cl", "note": "[REF 149, 2-chloro-4-[[3-[4-(cyanomethoxy)-2,3-difluoro-phenyl]imidazo[1,2-a]pyrazin-8-yl]amino]-N-[3-(dimethylamino)propylcarbamoyl]-N-ethyl-benzamide]", "IC90": 450}, {"smiles": "CCc1cc(Nc2nccn3c(-c4ccc(Oc5ccccn5)c(F)c4F)cnc23)ccc1C(=O)NCCCCCC(=O)N1CCN[C@H](CO)C1", "note": "[Example 478, 4-[[3-[2,3-difluoro-4-(2-pyridyloxy)phenyl]imidazo [1,2-a]pyrazin-8-yl]amino]-2-ethyl-N-[6-[(3S)-3-(hydroxymethyl)piperazin-1-yl]-6-oxo-hexyl]benzamide]", "IC90": 380}, {"smiles": "Cc1cc(Nc2nccn3c(-c4ccc(OCC#N)c(F)c4F)cnc23)ccc1C(=O)NCCCNC(=O)[C@@H]1C[C@@H](O)CN1", "note": "[Example 357, (2S,4R)-N-[3-[[4-[[3-[4-(cyanomethoxy)-2,3-difluorophenyl]imidazo[1,2-a]pyrazin-8-yl]amino]-2-methylbenzoyl]amino]propyl]-4-hydroxypyrrolidine-2-carboxamide]", "IC90": 50}, {"smiles": "COc1ccc(-c2cnc3c(Nc4ccc(C(=O)NCC5CCOC5)c(C)c4)nccn23)cc1F", "note": "(stereo not drawn) [Example 70, 4-((3-(3-fluoro-4-methoxyphenyl)imidazo [1,2-a]pyrazin-8-yl)amino)-2-methyl-N-((tetrahydrofuran-3-yl)methyl)benzamide]", "IC90": 700}, {"smiles": "CCc1cc(Nc2nccn3c(-c4ccc(Oc5ccccn5)c(F)c4F)cnc23)ccc1C(=O)NCCNC(=O)[C@@H](N)CCNC(=N)N", "note": "[Example 420, N-[2-[[(2S)-2-amino-4-guanidino-butanoyl]amino]ethyl]-4-[[3-[2,3-difluoro-4-(2-pyridyloxy)phenyl]imidazo [1,2-a]pyrazin-8-yl]amino]-2-ethyl-benzamide; formic acid]", "IC90": 720}, {"smiles": "COc1ccc(-c2cnc3c(Nc4ccc(C(=O)N(C)C)cc4)nccn23)cc1", "note": "[Example 231, 4-[[3-(4-methoxyphenyl)imidazo[1,2-a]pyrazin-8-yl]amino]-N,N-dimethylbenzamide]", "IC90": 400}, {"smiles": "CCc1cc(Nc2nccn3c(-c4ccc(OC)c(F)c4F)cnc23)ccc1C(=O)NCCCNC(=O)[C@H](CCCNC(=N)N)NC(=O)CC[C@H](N)C(=O)O", "note": "[Example 407, N5-((S)-1-((3-(4-((3-(2,3-difluoro-4-methoxyphenyl)imidazo[1,2-a]pyrazin-8-yl)amino)-2-ethylbenzamido)propyl)amino)-5-guanidino-1-oxopentan-2-yl)-L-glutamine trihydrochloride]", "IC90": 940}]}]}
